Measured values: PubChem BioAssay AID1996
Converted amounts (≈) assume the structure as drawn.

Conditions: buffer; pH 7.4; 200.0 µM

`CCOC(=O)c1nc(-c2ccccc2)sc1C(C)=O` and `CCOC(=O)COc1c(C(=O)OC)sc2ncccc12` are within 1.5-fold of each other in solubility kinetic: 35.9 µg/mL (≈ 130 µM) for the first, 35.6 µg/mL (≈ 121 µM) for the second.

`CCCNc1nc(Cl)nc(NCc2cccnc2)n1` and `CCC(C)Nc1nc(C)nc2c1oc1ccccc12.Cl` (stereo not drawn) are within 1.5-fold of each other in solubility kinetic: 33.5 µg/mL (≈ 120 µM) for the first, 41.3 µg/mL for the second.

`CC(C)NCC(O)COc1cccc2ccccc12.Cl` (stereo not drawn) and `CCOc1ccc(CN(C)C(=O)CNC(=O)c2ccccc2)cc1` cannot be ordered by solubility kinetic: greater than 44.4 µg/mL for the first, greater than 49 µg/mL for the second.

Going from `O=C(COC(=O)c1cc(S(=O)(=O)N2CCOCC2)ccc1Cl)NCc1ccccc1` to `COc1cc(NC(=O)COC(=O)c2cc(S(=O)(=O)N3CCOCC3)ccc2F)cc(OC)c1`, the solubility kinetic falls from greater than 67.9 µg/mL to 34.2 µg/mL (≈ 70.9 µM).

Going from `CCN(C(=O)CN1CCCC(C)C1)c1c(N)n(Cc2ccccc2)c(=O)[nH]c1=O` (stereo not drawn) to `CCCCn1c(N)c(N(CC)C(=O)COc2ccc(C#N)cc2)c(=O)[nH]c1=O`, the solubility kinetic falls from greater than 59.9 µg/mL to 15.6 µg/mL (≈ 40.5 µM).

First: CN1/C(=C/C=C(C#N)C#N)C=Cc2ccccc21
Second: Cc1cc(N/C=C/C(=O)c2ccccc2)ccc1Br
The solubility kinetic of the first is higher: 1.1 µg/mL (≈ 4.72 µM) for the first, less than 0.7 µg/mL for the second.

`Cc1ccc(OCC(=O)NCCCNC(=O)c2ccco2)cc1` and `COc1ccc(NC(=O)CCC(=O)NCc2ccco2)c([N+](=O)[O-])c1` cannot be ordered by solubility kinetic: greater than 47.5 µg/mL for the first, greater than 52.1 µg/mL for the second.

First: CCCNC(=O)c1oc2ccc3c(c2c1C)C(O)CC(C)(C)O3 (stereo not drawn)
Second: CCc1noc(C)c1C(=O)OCC(=O)Nc1ccc2c(c1)OCO2
The solubility kinetic of the first is higher: greater than 47.6 µg/mL for the first, 9.5 µg/mL (≈ 28.6 µM) for the second.

`CC(C)c1ccc[n+](-c2nc([O-])sc2C=O)c1` and `Cc1cccc(NC(=S)N(CCc2ccncc2)C(C)C)c1C` are within 1.5-fold of each other in solubility kinetic: 27.4 µg/mL (≈ 110 µM) for the first, 32.5 µg/mL (≈ 99.2 µM) for the second.

`CCOC(=O)Cc1csc(NC(=O)CN2C(=O)c3ccccc3C2=O)n1` and `CCOC(=O)Cn1nc(C)n(-c2c(C)cccc2C)c1=O` cannot be ordered by solubility kinetic: 54.3 µg/mL (≈ 145 µM) for the first, greater than 43.4 µg/mL for the second.

`CC(C)CNC(=S)N1CCC(C(=O)c2ccc(F)cc2)CC1` and `CN1CCC(OC(=O)COc2ccc(F)cc2)CC1.Cl` cannot be ordered by solubility kinetic: greater than 48.4 µg/mL for the first, greater than 45.6 µg/mL for the second.

Compared with `O=C(COC(=O)c1ccc([N+](=O)[O-])o1)Nc1ccc(F)cc1`, `O=C(OCc1ccc([N+](=O)[O-])cc1)c1cc(=O)c2ccccc2o1` is lower in solubility kinetic: greater than 46.2 µg/mL for the first, 5.9 µg/mL (≈ 18.1 µM) for the second.

Going from `COC(=O)C1=C(C)OC(N)=C(C#N)C12C(=O)Nc1ccccc12` (stereo not drawn) to `COC(=O)c1cc(C(=O)OC)n(Cc2ccc(F)cc2)c1C`, the solubility kinetic falls from greater than 46.7 µg/mL to 10.6 µg/mL (≈ 34.7 µM).

First: Cl.Oc1ccc(CC2(N3CCCC3)CCCCC2)cc1
Second: O=C(CN1CCCC1)Nc1ccccc1Sc1ccc(Cl)cc1
The solubility kinetic of the first is 4.7-fold higher: 40.5 µg/mL for the first, 8.6 µg/mL (≈ 24.8 µM) for the second.

`CC(=O)N/C(=C\c1ccccc1)C(=O)OCc1ccccc1` and `O=C(O)[C@H](Cc1ccccc1)NC(=O)N1CCN(c2ccccc2)CC1` cannot be ordered by solubility kinetic: greater than 44.3 µg/mL for the first, 51.8 µg/mL (≈ 147 µM) for the second.

Going from `O=[N+]([O-])c1cccc(CN2CC=C(c3ccc(F)cc3)CC2)c1` to `O=C(c1cc2ccccc2o1)N1CC=C(c2ccccc2)CC1`, the solubility kinetic rises from 3.3 µg/mL (≈ 10.6 µM) to 5.1 µg/mL (≈ 16.8 µM) (1.5-fold).

First: CC1CN(CCCCSc2ccccc2)CC(C)O1.Cl (stereo not drawn)
Second: O=C(Nc1ccccc1)C1CCOC1=O (stereo not drawn)
The solubility kinetic of the first is 1.6-fold higher: 41.8 µg/mL for the first, 26.3 µg/mL (≈ 128 µM) for the second.

`CC(=O)N/N=C(\C)c1cccc(C(F)(F)F)c1` and `Cc1cc(=O)oc(C)c1C(=O)Nc1cccc(F)c1` cannot be ordered by solubility kinetic: greater than 36.6 µg/mL for the first, greater than 39.2 µg/mL for the second.

First: CCN(C(=O)COc1ccccc1)C1CCCCC1
Second: O=C(NC(=S)NC1CCCCC1)c1ccccc1[N+](=O)[O-]
The solubility kinetic of the first is 12-fold higher: 37.4 µg/mL (≈ 143 µM) for the first, 3 µg/mL (≈ 9.76 µM) for the second.

First: COc1ccc(NC(=O)c2ccc3[nH]c(C)c(C)c3c2)c(OC)c1
Second: Cc1ccc(NC(=O)c2sc(C)nc2C)c(C)c1
The solubility kinetic of the first is lower: 1.9 µg/mL (≈ 5.86 µM) for the first, greater than 39.1 µg/mL for the second.

`CC(C)Cn1c(SCC(=O)N2CCc3ccccc3C2)nc(O)cc1=O` and `CC(C)CNCC1OCc2ccccc2CO1.Cl` cannot be ordered by solubility kinetic: greater than 56 µg/mL for the first, greater than 40.8 µg/mL for the second.

Going from `CCC(CC)C(=O)N1CC(=O)Nc2ccc(F)cc2C1c1ccccc1` (stereo not drawn) to `CCOc1cc(CN2CCc3c([nH]c4ccccc34)C2)ccc1OC`, the solubility kinetic falls from 51.9 µg/mL (≈ 146 µM) to 32.8 µg/mL (≈ 97.5 µM) (1.6-fold).

First: CC(=O)c1cccc(NC(=O)/C(=C/c2ccncc2)NC(=O)c2ccccc2)c1
Second: Cc1cccc(NC(=O)Cn2cnc3c(oc4ccccc43)c2=O)c1
The solubility kinetic of the first is higher: 4.2 µg/mL (≈ 10.9 µM) for the first, less than 0.2 µg/mL for the second.

Going from `Nc1nc2ccc(Cc3ccncc3)cc2s1` to `N#Cc1c(-c2ccccc2)cc(-c2ccc(O)cc2)nc1N`, the solubility kinetic falls from greater than 36.2 µg/mL to less than 0.2 µg/mL.

Going from `COc1ccc(NS(=O)(=O)c2ccc3oc(=S)[nH]c3c2)cc1` to `Cn1c(=O)oc2cc(S(=O)(=O)Nc3ccc(F)cc3)ccc21`, the solubility kinetic falls from greater than 50.5 µg/mL to 7.2 µg/mL (≈ 22.3 µM).

`CCN(CC(=O)NCCN1CCOCC1)S(=O)(=O)c1ccc(F)cc1` and `CS(=O)(=O)c1ccc(NC(=O)CN2C(=O)C3CCCCC3C2=O)cc1` (stereo not drawn) cannot be ordered by solubility kinetic: greater than 56 µg/mL for the first, greater than 54.7 µg/mL for the second.

First: O=[N+]([O-])c1ccc(SCCc2cc[nH+]cc2)cc1.[Cl-]
Second: Cc1ccc(Sc2ncccc2[N+](=O)[O-])cc1
The solubility kinetic of the first is 13-fold higher: 36.5 µg/mL for the first, 2.8 µg/mL (≈ 11.4 µM) for the second.

`N#Cc1c(-c2cccc(Cl)c2)[nH]c(=S)[nH]c1=O` and `CC(=O)c1c(C)[nH]c(=S)c(C#N)c1-c1ccc(Cl)cc1` cannot be ordered by solubility kinetic: greater than 39.6 µg/mL for the first, greater than 45.4 µg/mL for the second.

First: O=C(O)CCCC(=O)Nc1cc([N+](=O)[O-])ccc1O
Second: O=C(Cn1cc([N+](=O)[O-])ccc1=O)NCC(=O)Nc1ccc(F)c(F)c1F
The solubility kinetic of the first is 3.9-fold higher: 35.8 µg/mL (≈ 133 µM) for the first, 9.2 µg/mL (≈ 23.9 µM) for the second.

Going from `O=C1CSc2ccc(C(=O)NCCc3ccc(Cl)cc3Cl)cc2N1` to `Cl.O=C(NCCCn1ccnc1)c1cc(Cl)cc(Cl)c1`, the solubility kinetic rises from 3.7 µg/mL (≈ 9.7 µM) to greater than 50.2 µg/mL.

`CC1=C(C(=O)OC(C)C)C(c2ccc3c(c2)OCO3)NC(=O)N1` (stereo not drawn) and `c1cnc(N2CCN(Cc3ccc4c(c3)OCO4)CC2)cn1` are within 1.5-fold of each other in solubility kinetic: 47.3 µg/mL (≈ 149 µM) for the first, 44.5 µg/mL (≈ 149 µM) for the second.

Compared with `COc1ccccc1N(CC(=O)Nc1cc(S(=O)(=O)N(C)C)ccc1C)S(=O)(=O)c1cccs1`, `CN(CC(=O)Nc1cccc(C#N)c1)Cc1ccc(Cl)cc1` is 1.9-fold higher in solubility kinetic: 14.4 µg/mL (≈ 27.5 µM) for the first, 27.9 µg/mL (≈ 88.9 µM) for the second.

Compared with `Cc1occc1C(=O)N(C)Cc1nc(-c2ccccc2)no1`, `Cc1c(C(=O)Nc2ccccn2)oc2c(Cl)cccc12` is 4.4-fold lower in solubility kinetic: 40.9 µg/mL (≈ 138 µM) for the first, 9.4 µg/mL (≈ 32.8 µM) for the second.

First: Cc1ccc(NS(=O)(=O)c2c(C)noc2C)cc1
Second: Cc1cc(C)c(S(=O)(=O)Nc2ccc3[nH]c(=O)[nH]c3c2)c(C)c1
The solubility kinetic of the first is higher: greater than 39.9 µg/mL for the first, 2.8 µg/mL (≈ 8.45 µM) for the second.

Going from `CN(CCC#N)C(=O)CC1(Cc2ccccc2)CCOC(C)(C)C1` (stereo not drawn) to `CC(NC(=O)CCC(=O)NC(C)c1ccccc1)c1ccccc1` (stereo not drawn), the solubility kinetic falls from greater than 49.3 µg/mL to 46.2 µg/mL (≈ 142 µM).

Compared with `O=C(c1c(Cl)cccc1Cl)N1CCN(c2cccc3[nH]ccc23)CC1`, `S=C(Nc1ccccc1)N1CCN(C/C=C/c2ccccc2)CC1` is higher in solubility kinetic: 4.8 µg/mL (≈ 12.8 µM) for the first, greater than 50.6 µg/mL for the second.

`Cc1ccc2nc(SCC(=O)NC3CCS(=O)(=O)C3)[nH]c2c1` (stereo not drawn) and `COc1cc(/C=C/C(=O)OCC(=O)NC2CCCCCCC2)ccc1O` are within 1.5-fold of each other in solubility kinetic: 48.3 µg/mL (≈ 142 µM) for the first, 36.2 µg/mL (≈ 100 µM) for the second.

`NC(=S)NC1CC2C=CC1C2` (stereo not drawn) and `Cc1cc(C(=O)N2CC(C)CC(C)C2)c(C)o1` (stereo not drawn) cannot be ordered by solubility kinetic: greater than 25.2 µg/mL for the first, 30.1 µg/mL (≈ 128 µM) for the second.

`CCOC(=O)c1ccc(NC(=O)N2C[C@@H]3C[C@@H](C2)c2cccc(=O)n2C3)cc1` and `CC(=O)Nc1ccc(S(=O)(=O)Nc2nccs2)cc1` cannot be ordered by solubility kinetic: greater than 57.2 µg/mL for the first, greater than 44.6 µg/mL for the second.

Going from `COc1cccc(Nc2c([N+](=O)[O-])cncc2[N+](=O)[O-])c1` to `Cc1cc2c(sc3c(C)ccc(C)c32)c(C)n1.Cl`, the solubility kinetic falls from greater than 43.5 µg/mL to less than 0.6 µg/mL.

`COc1cc(OC)cc(C(=O)OCC(=O)N2CCCC2)c1` and `Cc1nc(SCCO)c([N+](=O)[O-])[nH]1` cannot be ordered by solubility kinetic: greater than 44 µg/mL for the first, greater than 30.5 µg/mL for the second.

With `CCCCn1c(=N)n(CC(O)c2ccccc2)c2ccccc21.Cl` (stereo not drawn) the solubility kinetic was greater than 51.9 µg/mL.
